Results: publication PMC5715905, “Mechanistic insight into the assembly of the HerA–NurA helicase–nuclease DNA end resection complex” (Nucleic Acids Research, 2017)
Values belong to the molecule of their own block, whether it stands above or below them.

Tests used:
[1] = target: T1, HerA (Saccharolobus solfataricus, UniProt Q97WG8); assay: native mass spectrometry titration; assay type: binding; conditions: 2 mM MgCl2, room temperature 1 h, 30 μM monomer, then 200 mM ammonium acetate, no dsDNA
T1 construct: recombinant, heat-treated, heparin and Q columns; homo-hexamer and homo-heptamer (heptamer dominant when apo)
T1 sequence (Q97WG8 1-500): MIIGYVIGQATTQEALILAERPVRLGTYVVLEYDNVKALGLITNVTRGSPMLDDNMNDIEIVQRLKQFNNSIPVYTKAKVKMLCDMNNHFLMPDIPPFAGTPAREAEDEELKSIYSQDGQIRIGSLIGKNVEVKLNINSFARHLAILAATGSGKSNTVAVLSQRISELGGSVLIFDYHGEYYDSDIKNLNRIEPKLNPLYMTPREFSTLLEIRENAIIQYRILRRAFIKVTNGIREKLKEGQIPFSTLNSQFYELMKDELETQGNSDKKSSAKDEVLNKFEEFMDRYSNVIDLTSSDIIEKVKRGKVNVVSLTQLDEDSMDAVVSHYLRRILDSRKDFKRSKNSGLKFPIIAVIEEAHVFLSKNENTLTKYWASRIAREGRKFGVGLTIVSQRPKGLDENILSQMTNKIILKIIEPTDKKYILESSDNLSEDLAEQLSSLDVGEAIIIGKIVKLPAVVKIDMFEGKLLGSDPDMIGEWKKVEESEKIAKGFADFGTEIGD

[2] = target: T2, HerA–NurA (Saccharolobus solfataricus, UniProt Q97WG8); assay: native mass spectrometry; assay type: binding; conditions: nuclease-active complex with 25 bp dsDNA
T2 construct: purified recombinant HerA hexamer with NurA dimer; with DNA double-strand break repair nuclease NurA

[3] = target: the molecule itself; assay: native MS; HerA incubated with NurA (2:3 molar ratio of monomers), no dsDNA, no nucleotide, 200 mM ammonium acetate
[4] = target: T3, HerA helicase, wild type (Sulfolobus solfataricus) (S. solfataricus, UniProt Q97WG8 1-500); assay: as above; conditions: both partners purified
T3 construct: HerA helicase of the thermophilic archaeon Sulfolobus solfataricus; In solution a mix of hexamer and heptamer; the hexamer is the form found with NurA; No tag is named in the purification; Expression and constructs may be described in the supplementary materials and methods; also called apo-HerA; wild-type HerA; source: cells lysed by sonication, lysate heated at 70°C, purified (Heparin HP, …)
T3 sequence: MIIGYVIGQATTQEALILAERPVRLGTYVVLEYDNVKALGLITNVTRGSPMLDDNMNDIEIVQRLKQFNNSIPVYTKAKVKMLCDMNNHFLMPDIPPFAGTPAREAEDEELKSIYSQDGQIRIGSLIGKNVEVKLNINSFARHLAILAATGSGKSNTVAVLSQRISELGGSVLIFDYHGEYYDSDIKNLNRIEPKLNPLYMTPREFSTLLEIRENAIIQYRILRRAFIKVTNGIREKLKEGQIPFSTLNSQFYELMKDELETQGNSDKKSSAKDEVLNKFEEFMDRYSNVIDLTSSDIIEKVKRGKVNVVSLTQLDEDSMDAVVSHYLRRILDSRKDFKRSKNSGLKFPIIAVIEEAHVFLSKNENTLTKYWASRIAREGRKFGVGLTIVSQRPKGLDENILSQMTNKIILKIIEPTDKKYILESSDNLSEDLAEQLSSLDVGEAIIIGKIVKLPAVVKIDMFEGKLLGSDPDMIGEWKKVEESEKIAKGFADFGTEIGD

Molecule: Nc1ncnc2c1ncn2[C@@H]1O[C@H](COP(=O)(O)OP(=O)(O)O)[C@@H](O)[C@H]1O [ADP]
native mass spectrometry titration ([1]; 1 mM ADP spectrum): increase in hexameric HerA population was found when titrating HerA with increasing concentrations of ADP | native mass spectrometry ([2]; ATP-γ-S pre-bound): determined the number of ADP simultaneously bound to HerA–NurA–dsDNA

Molecule: Nc1ncnc2c1ncn2[C@@H]1O[C@H](COP(=O)(O)OP(=O)(O)OP(O)(O)=S)[C@@H](O)[C@H]1O [ATP-γ-S]
native mass spectrometry titration [1]: the HerA hexamer binds all six ATP-γ-S simultaneously | native mass spectrometry ([2]; mixed with ADP): nuclease-active HerA–NurA–dsDNA complex was incubated with ATP-γ-S

binding result [4]: binds
B1: NurA nuclease, wild type (Sulfolobus solfataricus) (enzyme, S. solfataricus)
chain: MIRKIYDKLVESHNEIKNQIYNIANYLKQEIQDKVNEYWNEYVINHEQSETCKFVAIDGGSFGRPMRIGIVYAVGAESVIGDNKGVKTLSEDGQIGIFKPGNDAQERISLLMEALELSLALRDGSKGDYILMDGSLSKKIGNKVDIQQFSDEELKLIRNVDLNGIISIKDERKMRDLLMLLNQFLVSKIIEEYDGNVLWISKVSRGRDLFGTDYPDITVLELFTEKRGFSKLIIKNIDIEKISEIPEIEVLRKMEYTTFYTRLDNGKRVIRVDIVGRVDEKIVKEIMDRLSGVSIKGYPFPLLKAHMDVRFSAMDREKIIKLVGSKLHKDIEWWPSQFY
notes: NurA nuclease of the thermophilic archaeon Sulfolobus solfataricus; Homodimer; No tag is named in the purification; also called NurA^WT; NurA dimer; source: cells lysed by sonication, lysate heated at 70°C, purified (Heparin HP, HiTrap Q HP)
stoichiometry N [3]: 2
